Source: PMC3901259, “Characterisation of the Metabolites of 1,8-Cineole Transferred into Human Milk: Concentrations and Ratio of Enantiomers” (Metabolites, 2013)

Assays:
[1] = Quantification of 1,8-cineole metabolites in human milk (SAFE, GC-MS, internal standard and matrix calibration) after oral intake of 100 mg 1,8-cineole; assay type: in vivo; conditions: for Absolute concentration in human milk: single determination
Text: Human milk samples were provided voluntarily by breastfeeding mothers after intake of the non-prescription pharmaceutical Soledum® (Klosterfrau Healthcare Group, Cologne, Germany). Before the beginning of the study, the participants were informed verbally, as well as in written form, about the study procedure and purpose and they were told that withdrawing from the study was possible at any time without giving any reason. All volunteers gave written consent to the analysis of their milk samples and anonymous publication of the resulting data. The Ethical Committee of the Medical Faculty, University Erlangen-Nuremberg, approved the experimental procedures. Each participant was handed a copy of the Soldeum® package instructions and was advised to read it before capsule intake. They were also advised to withdraw from the study if any negative reactions such as medication allergies or interactions with other drugs they were taking were to be expected. Additionally, the volunteers were informed verbally about potential effects of the pharmaceutical preparation on breastfeeding, i.e. the risk of an altered milk flavour and rejection of the milk by the nursling. Accordingly, if this would happen, the mothers were recommended to feed their babies with stored human milk or formula milk products.
The milk donors were between the ages of 29 and 40 years (mean 34 years). During their participation in the study, their breast milk production had to be normal and in excess of their infants' needs, with no breast infections and no overall medical complaints present. Five participants were primiparous, three were multiparous and the breast milk samples were from 19 weeks to 19 months postpartum. For sampling, either electrical or mechanical breast pumps or manual expression techniques were applied, resulting in sample volumes between 10 and 100 mL. The samples were immediately subjected to sample preparation after a maximum storage time of five hours at 7 °C or were stored in a freezer at −20 °C for up to five days.
The participating volunteers were asked to ingest one Soledum® capsule, containing 100 mg 1,8-cineole, and to wait until they themselves or another person began to notice the eucalyptus-like odour on their breath. […] The donors were instructed to keep notes on the dates of capsule intake, first eucalyptus-like odour on their breath and exact sampling time. Unfortunately it was difficult for some mothers to detect the smell on their breath so they expressed the samples after some time without having noticed the smell, or reported having been unsure about the smell. […] Some of the donors repeated the whole experiment and some expressed more than one sample after the capsule intake, resulting in 14 samples in total, from 8 different mothers.
Extracts containing the volatile fraction of the human milk samples were prepared by Solvent Assisted Flavour Evaporation (SAFE) after addition of deuterated 1,8-cineole as internal standard (solution in dichloromethane), followed by 10 min of stirring, then another addition of dichloromethane (50% v/v), and 30 min of stirring. The resulting stable phase was distilled in the SAFE-apparatus at 50 °C and approximately 1x10^−4 mbar. The volatile fraction of the samples was frozen with liquid nitrogen. After thawing, it consisted of two phases, formed by the dichloromethane and by the water out of the milk. The water phase was extracted three times with dichloromethane, and the solvent phases were combined and dried over anhydrous Na2SO4. Finally the sample extracts were concentrated by microdistillation according to Bemelmans at 50 °C to a total volume of 50 to 200 μL.
For GC-MS analyses, an Agilent MSD quadrupole system (GC 7890A with MSD 5975C, Agilent Technologies, Waldbronn, Germany) coupled with a CIS 4C (cooled injection system) and an MPS 2 auto-sampler (Gerstel GmbH & Co. KG, Duisburg, Germany) were used. […]

[2] = Determination of the ratios of enantiomers of chiral metabolites in human milk on chiral GC capillaries; assay type: in vivo
Text: The separation of the chiral metabolites of 1,8-cineole was successfully achieved using different β- or γ-cyclodextrin-based stationary phases (Rt-bDEXsa, Rt-bDEXse, Rt-bDEXsm and Rt-yDEXsa) for gas chromatographic analysis. Table S1, in the supplementary material, lists the usable separation phases and the respective retention indices (determined according to van den Dool and Kratz) for each pair of enantiomers. It was therefore decided to use the following capillaries for the analysis of the human milk samples: Rt-bDEXsm for separation of 2,3-dehydro-, α2,3-epoxy-, 2-oxo-, 3-oxo- and 9-hydroxy-1,8-cineole, and Rt-yDEXsa for separation of α2-hydroxy-, α3-hydroxy- and β2-hydroxy-1,8-cineole, under the GC conditions described in the experimental section.
For GC-MS analyses, an Agilent MSD quadrupole system (GC 7890A with MSD 5975C, Agilent Technologies, Waldbronn, Germany) coupled with a CIS 4C (cooled injection system) and an MPS 2 auto-sampler (Gerstel GmbH & Co. KG, Duisburg, Germany) were used. Data collection and analysis were performed with the MSD ChemStation E.02.00.493 (Agilent Technologies, Inc.) software. Quantification experiments were carried out on DB-FFAP and DB-5 capillaries (30 m length, 0.25 mm inner diameter, 0.25 µm film thickness, Agilent J&W GC Columns, USA), and for monitoring of the ratio of enantiomers the chiral capillaries Rt-bDEXsa, Rt-bDEXse, Rt-bDEXsm and Rt-yDEXsa (30 m length, 0.32 mm inner diameter, 0.25 µm film thickness, Restek GmbH, Bad Homburg, Germany) were utilised. Pre-columns of uncoated, deactivated fused silica (0.53 mm inner diameter, 0.5 to 3.5 m length) were used to ensure that no potentially present low-volatile residues could contaminate the analytical capillaries. The temperature programme of the column oven was as follows: 40 °C for 2 min, 4 °C/min up to 170 °C, 40 °C/min up to 230 °C (Rt-DEX capillaries), 240 °C (DB-FFAP) and 250 °C (DB-5), respectively, and hold time at end temperature of 5 to 10 min. As carrier gas, helium was used at a flow rate of 1.3 mL/min (velocity 41.1 cm/s). Injection of 1 or 2 µL was performed by the auto-sampler.
For the separation of the pairs of enantiomers of the chiral metabolites of 1,8-cineole, four different capillaries (Rt-bDEXsa, Rt-bDEXse, Rt-bDEXsm, and Rt-yDEXsa) were evaluated for optimisation of the peak-to-peak resolution of the enantiomers by injecting a mixture of all the metabolites in a dichloromethane solution and by varying the heating rate. Besides the separation of each pair of enantiomers from each other, it was also important to confirm that no other metabolite coeluted with any one of the enantiomers, because the milk samples would most probably contain all metabolites. Moreover, the separation conditions for the mixture of reference substances were also tested on some human milk sample extracts and modified accordingly, where necessary, to avoid coelution with interfering matrix compounds.
For calculation of the ratio of enantiomers (that is, the relative abundance of each enantiomer to the not separated mixture of enantiomers), the peak area of each enantiomer was divided by the sum of the peak areas of both enantiomers and multiplied by 100. With the known concentrations of the chiral metabolites in each milk sample, the absolute concentration of each single enantiomer was also calculated by multiplying the concentration with the respective percentage.

[3] = parameters: method as in PMID 20425757; conditions: one volunteer, sage tea, overall intake 1.02 mg 1,8-cineole; cited from earlier work
[4] = sample A-1b (odour yes), oral 100 mg 1,8-cineole, values given with (<x) are approximations
[5] = sample B-1 (odour yes), oral 100 mg 1,8-cineole, values given with (<x) are approximations
[6] = sample B-2b (odour yes), oral 100 mg 1,8-cineole, values given with (<x) are approximations
[7] = sample B-2c (no odour), oral 100 mg 1,8-cineole
[8] = sample D-1 (no odour), oral 100 mg 1,8-cineole, values given with (<x) are approximations
[9] = sample D-2 (odour yes), oral 100 mg 1,8-cineole, values given with (<x) are approximations
[10] = sample E-2 (odour yes), oral 100 mg 1,8-cineole, values given with (<x) are approximations
[11] = sample F (no odour), parent ingested two capsules, values given with (<x) are approximations
[12] = sample G (odour yes), oral 100 mg 1,8-cineole, values given with (<x) are approximations
[13] = sample H (odour yes), oral 100 mg 1,8-cineole, values given with (<x) are approximations
[14] = sample C (no odour; very weak odour not caused by 1,8-cineole), oral 100 mg 1,8-cineole, values given with (<x) are approximations

Absolute concentration in human milk [1, 4] | Absolute concentration in human milk [1, 5] | Absolute concentration in human milk [1, 6] | Absolute concentration in human milk [1, 7] | Absolute concentration in human milk [1, 8] | Absolute concentration in human milk [1, 9] | Absolute concentration in human milk [1, 10] | Absolute concentration in human milk [1, 11] | Absolute concentration in human milk [1, 12] | Absolute concentration in human milk [1, 13] | Estimated maximum level in human milk (concentration calculated with the last calibration point, in parentheses) ([1]; sample B-2b (odour yes)) | Estimated maximum level in human milk (concentration calculated with the last calibration point, in parentheses) ([1]; sample C (no odour)) | Absolute concentration in human milk [1, 14] | Estimated maximum level in human milk (concentration calculated with the last calibration point, in parentheses) ([1]; sample D-1 (no odour)) | Estimated maximum level in human milk (concentration calculated with the last calibration point, in parentheses) ([1]; sample D-2 (odour yes)) | Estimated maximum level in human milk (concentration calculated with the last calibration point, in parentheses) ([1]; sample G (odour yes)) | SMILES | Concentration in plasma [3] | also measured
5.96 µg/kg | 6.35 µg/kg | 5.62 µg/kg | 2.32 µg/kg | 2.24 µg/kg | 7.13 µg/kg | 8.92 µg/kg | 3.62 µg/kg | 3.39 µg/kg | 5.66 µg/kg |  |  |  |  |  |  | CC12CCC(O)(CC1)C(C)(C)O2 [4-hydroxy-1,8-cineole] |  | 
1.80 µg/kg | 3.32 µg/kg | 1.47 µg/kg | 0.68 µg/kg | 0.77 µg/kg | 2.12 µg/kg | 2.41 µg/kg | 0.07 µg/kg | 3.38 µg/kg | 3.85 µg/kg | < 2.37 µg/kg | < 1.10 µg/kg | 0.14 µg/kg | < 1.22 µg/kg | < 2.20 µg/kg | < 4.02 µg/kg | CC12CCC(C(=O)C1)C(C)(C)O2 (stereo not shown) [3-oxo-1,8-cineole] |  | Estimated maximum level in human milk (concentration calculated with the last calibration point, in parentheses) ([1]; sample A-1a (no odour)): < 1.57 µg/kg; Absolute concentration in human milk ([1]; sample A-1a (no odour), oral 100 mg 1,8-cineole, values given with (<x) lie beyond calibration range, approximation): 0.01 µg/kg; Estimated maximum level in human milk (concentration calculated with the last calibration point, in parentheses) ([1]; sample F (no odour), two capsules): < 3.00 µg/kg; Enantiomeric ratio in human milk [2]: nearly enantiomerically pure; Percentage E1, range as described for boxplot ([2]; human milk samples, Figure 5): under 10%
6.00 µg/kg | 6.72 µg/kg | 5.82 µg/kg | 1.71 µg/kg | 1.42 µg/kg | 7.35 µg/kg | 11.44 µg/kg |  | 3.80 µg/kg | 7.90 µg/kg |  | < 0.96 µg/kg | 0.33 µg/kg |  |  |  | CC1(C)OC2(C)CCC1CC2O (stereo not drawn) [b2-hydroxy-1,8-cineole, β2-hydroxy-1,8-cineole] |  | 
0.77 µg/kg | 1.06 µg/kg | 0.54 µg/kg | 0.05 µg/kg | 0.03 µg/kg | 0.41 µg/kg | 0.96 µg/kg |  | 0.72 µg/kg | 1.53 µg/kg | < 2.07 µg/kg | < 0.96 µg/kg | 0.05 µg/kg | < 1.06 µg/kg | < 1.92 µg/kg | < 3.51 µg/kg | CC12CCC(C(O)C1)C(C)(C)O2 (stereo not drawn) [a3-hydroxy-1,8-cineole, α3-Hydroxy-1,8-cineole] | below the limit of quantitation | Estimated maximum level in human milk (concentration calculated with the last calibration point, in parentheses) ([1]; sample A-1b (odour yes)): < 1.14 µg/kg; Estimated maximum level in human milk (concentration calculated with the last calibration point, in parentheses) ([1]; sample B-1 (odour yes)): < 1.65 µg/kg; Estimated maximum level in human milk (concentration calculated with the last calibration point, in parentheses) ([1]; sample E-2 (odour yes)): < 1.78 µg/kg; Estimated maximum level in human milk (concentration calculated with the last calibration point, in parentheses) ([1]; sample H (odour yes)): < 1.96 µg/kg
0.56 µg/kg | 1.14 µg/kg | 4.42 µg/kg | 0.18 µg/kg |  | 0.62 µg/kg | 5.19 µg/kg |  | 0.84 µg/kg | 1.87 µg/kg |  |  |  |  |  | < 1.06 µg/kg | CC1(C)OC2(CO)CCC1CC2 [7-hydroxy-1,8-cineole] | below the limit of quantitation | Absolute concentration in human milk ([1]; sample B-2a (no odour), oral 100 mg 1,8-cineole): 0.21 µg/kg
